# Several values for one entry are separate records, joined by “and”; a condition that tells them apart may be missing. Identical values can stand only once.
# Key:
# [1] = HPN-100-005 pharmacokinetics of HPN-100 and NaPBA in pediatric UCD patients; type: in vivo, human; details: HPN-100-005 (N = 11)
# Source text: (§1) The pharmacokinetics of the short term studies can be summarized as follows. Mean exposure levels of HPN-100 metabolites PBA, PAA, and PAGN after doses of HPN-100 and NaPBA with meals (TID) in pediatric (29 days to 17 years of age) UCD patients in HPN-100-005 and HPN-100-012 studies are summarized below. The mean exposure to PBA, the parent metabolite, and mean exposure to PAGN, the terminal metabolite, show no systematic variation across age groups, while PAA exposure tended to decrease with increasing age, a finding consistent with those from population PK modeling which indicate that the rate of clearance/metabolism of PAA varies directly with body size. While systemic metabolite exposure, assessed as peak plasma concentration (Cmax) or AUC, is generally similar for HPN-100 and NaPBA, the minimum concentration (Cmin-ss) was higher—and/or percent-fluctuation less—for plasma PAGN, a finding consistent with slower gastrointestinal absorption of PBA when administered orally as HPN-100.
# [2] = HPN-100-012 switch-over study, pharmacokinetics of HPN-100 and NaPBA in pediatric UCD patients; type: in vivo, human; details: HPN-100-012 (N = 15), TID with meals
# Description: HPN-100-012, an open-label, fixed sequence, switch-over study of the safety, PK and efficacy of HPN-100 compared to NaPBA in patients with UCDs, with a 12-month safety extension part. The switch-over part of the study and the 12-month safety extension are complete. The switch-over part was conducted at 7 U.S. centers and enrolled 15 pediatric UCD patients between 29 days and <6 year of age, all of whom completed the study. After review of all the safety data by the DSMB, 8 additional subjects were enrolled in the study after the switch-over phase was completed. The primary efficacy endpoint was the 24-hour AUC (area under the curve) for blood ammonia on Day 1 compared with Day 10.
# as §1
# [3] = test system: blood ammonia in pediatric patients with UCDs; assay: HPN-100-012 open-label fixed sequence switch-over study, blood ammonia control; type: in vivo, human
# Source text: HPN-100-012, an open-label, fixed sequence, switch-over study of the safety, PK and efficacy of HPN-100 compared to NaPBA in patients with UCDs, with a 12-month safety extension part. […] After review of all the safety data by the DSMB, 8 additional subjects were enrolled in the study after the switch-over phase was completed. The primary efficacy endpoint was the 24-hour AUC (area under the curve) for blood ammonia on Day 1 compared with Day 10.
# [4] = test system: venous ammonia in pediatric patients with UCDs; assay: Studies 4/4E and 5, uncontrolled open-label studies in children under 2 years of age; type: in vivo, human
# Description: Uncontrolled, open-label studies were conducted to assess monthly ammonia control and hyperammonemic crisis of RAVICTI® in pediatric patients with UCDs 2 months to less than 2 years of age (Study 4/4E, Study 5, and Study 6). Patients in Study 5 previously participated in Study 4/4E. A total of 17 pediatric patients with UCDs aged 2 months to less than 2 years participated in the studies.
# A total of 7 patients with UCDs aged 2 months to less than 2 years participated in Studies 4/4E and 5. In these studies, there were 7, 6, 6, 6 and 3 pediatric patients who completed 1, 6, 9, 12 and 18 months, respectively (mean and median exposure of 15 and 17 months, respectively). Patients were converted from sodium phenylbutyrate to RAVICTI®. The dosage of RAVICTI® was calculated to deliver the same amount of PBA as the sodium phenylbutyrate dosage the patients were taking when they entered the study.
# Patients received a mean RAVICTI® dose of 7.5 mL/m^2/day (8.2 g/m^2/day), with doses ranging from 3.3 to 12.3 mL/m^2/day (3.7 to 13.5 g/m^2/day). Patients were dosed three times a day (n=3) or four times a day (n=4).
# Venous ammonia levels were monitored on days 1, 3 and 10 in Study 4 and at week 1 in Study 4E. Two patients had day 1 ammonia values of 122 micromol/L and 111 micromol/L respectively, neither had associated signs and symptoms of hyperammonemia.
# During the extension period, venous ammonia levels were monitored monthly. Ammonia values across different laboratories were normalized (transformed) to a common normal pediatric range of 28 to 57 micromol/L for comparability. The mean venous ammonia values in pediatric patients at month 1, 3, 6, 9 and 12 were 58, 49, 34, 65, and 31 micromol/L during treatment with RAVICTI®, respectively.
# Three patients reported a total of 3 hyperammonemic crises, as defined in Study 6. Hyperammonemic crises were precipitated by gastroenteritis, vomiting, infection or no precipitating event (one patient). There were 4 patients who had one venous ammonia level that exceeded 100 micromol/L which was not associated with a hyperammonemic crisis.
# [5] = test system: ammonia in UCD patients; assay: Open label fixed-sequence switch-over comparison of RAVICTI to NaPBA, 4 patients aged 2 months to 2 years; type: in vivo, human
# Source text: While the U.S. approval of RAVICTI® was based on its evaluation in 6 clinical trials involving over 100 adult and pediatric UCD patients aged 2 months old and above, only 7 patients aged 2 months to 2 years were enrolled in these studies. […] PAA exposure, also assessed as 24-hour area under the curve, was very similar. However, the number of patients in this age group studied at the time of RAVICTI's approval was small and considerable patient-to-patient variability was observed.
# [6] = test system: pancreatic lipase-related protein; details: cited from earlier work
# [7] = pediatric UCD patients, TID with meals, arithmetic mean
# [8] = original scale, predefined non-inferiority upper margin 1.25
# [9] = Studies 4/4E, 5 extension period, normalized to 28 to 57 micromol/L
structure (smiles),measurement,setting,value
"O=C(CCCc1ccccc1)OCC(COC(=O)CCCc1ccccc1)OC(=O)CCCc1ccccc1 [HPN-100, benzenebutanoic acid, 1′,1″-(1,2,3-propanetriyl) ester]",Plasma PAA CLss/F,[1]; [7],15082 mL/min
same,Plasma PBA CLss/F,[1]; [7],20545 mL/min
same,Plasma PAGN CLss/F,"[1]; pediatric UCD patients, TID with meals, arithmetic mean (CV %)",14237 mL/min
same,U-PAGN Ae0-12,"[1]; urinary PAGN excreted 0-12 h, arithmetic mean",5611719 µg
same,U-PAGN Ae12-24,"[1]; urinary PAGN excreted 12-24 h, arithmetic mean",6889318 µg
same,U-PAGN Ae,"[1]; urinary PAGN excreted, arithmetic mean",12501037 µg
same,Plasma PAA % Fluctuation,[2]; arithmetic mean,2141%
same,Plasma PAA AUC0-24,[2]; arithmetic mean,1096 µg·h/mL
same,Plasma PAA CLss/F,[2]; arithmetic mean,25538 mL/min
same,Plasma PAGN CLss/F,[2]; arithmetic mean,10830 mL/min
same,Plasma PBA CLss/F,[2]; arithmetic mean,22610 mL/min
same,Plasma PBA Cmin-ss,[2]; arithmetic mean,750 ng/mL
same,Plasma PAA Cmax-ss,[2]; arithmetic mean (CV %),84700 ng/mL
same,Plasma PAA Cmin-ss,[2]; arithmetic mean (CV %),26100 ng/mL
same,Plasma PAGN Cmin-ss,[2]; arithmetic mean (CV %),19900 ng/mL
same,Mean blood ammonia at the 12-hour time point,"[3]; HPN-100 Day 10, NaPBA Day 1, highest value for both treatments",28.24 µmol/L
same,Mean blood ammonia at the 8-h time point,"[3]; HPN-100 Day 10, lowest value on HPN-100",23.20 µmol/L
same,"24-hour AUC for blood ammonia, HPN-100 vs NaPBA, upper 90% CI",[3]; [8],1.002
same,"24-hour AUC for blood ammonia, HPN-100 vs NaPBA, upper 95% CI",[3]; [8],1.055
same,"ammonia AUC, median difference between treatments (HPN-100 vs NaPBA)",[3]; pediatric UCD patients 29 days to <6 years,-37.84 µmol·h/L
same,"24-hour AUC for blood ammonia (primary efficacy endpoint), HPN-100 compared to NaPBA","[3]; pediatric UCD patients aged 29 days to <6 years, Day 1 (NaPBA) vs Day 10 (HPN-100), non-inferiority upper margin 1.25",non-inferior
same,"Blood ammonia levels postprandially at any given time point, HPN-100 (Day 10) vs NaPBA (Day 1)",[3]; postprandial,directionally lower
same,patients with one venous ammonia level exceeding 100 micromol/L not associated with a hyperammonemic crisis,"[4]; Studies 4/4E, 5",4 patients
same,total hyperammonemic crises,"[4]; Studies 4/4E, 5, reported by three patients",3
same,"mean venous ammonia, month 1",[4]; [9],58 µmol/L
same,"mean venous ammonia, month 3",[4]; [9],49 µmol/L
same,"mean venous ammonia, month 6",[4]; [9],34 µmol/L
same,"mean venous ammonia, month 9",[4]; [9],65 µmol/L
same,"mean venous ammonia, month 12",[4]; [9],31 µmol/L
same,day 1 ammonia values of two individual patients,"[4]; Studies 4/4E, no associated signs and symptoms of hyperammonemia, listed as RAVICTI®",122 µmol/L and 111 µmol/L
same,patients with venous ammonia levels less than 100 micromol/L at day 10/week 1,"[4]; Studies 4/4E, of the 7 patients",six
same,day 10 ammonia value of the remaining patient,"[4]; Study 4, asymptomatic",168 µmol/L
same,"PAA exposure assessed as 24-hour area under the curve, RAVICTI vs NaPBA",[5],very similar
same,"mean ammonia exposure assessed at 24-hour area under the curve, RAVICTI vs NaPBA",[5],non-inferior
same,hydrolysis in vitro by pancreatic lipase-related protein,[6],hydrolyze
